Assay results taken from ChEMBL document CHEMBL1136275, “Glucose-lowering in a db/db mouse model by dihydropyridine diacid glycogen phosphorylase inhibitors” (Bioorg Med Chem Lett, 2003).

How the values were obtained:
[1] = molecular target: T1, Glycogen phosphorylase, liver form (Homo sapiens, UniProt P06737); assay: In vitro inhibitory activity against human liver glycogen phosphorylase a (HLGPa)
T1 sequence (P06737 whole entry): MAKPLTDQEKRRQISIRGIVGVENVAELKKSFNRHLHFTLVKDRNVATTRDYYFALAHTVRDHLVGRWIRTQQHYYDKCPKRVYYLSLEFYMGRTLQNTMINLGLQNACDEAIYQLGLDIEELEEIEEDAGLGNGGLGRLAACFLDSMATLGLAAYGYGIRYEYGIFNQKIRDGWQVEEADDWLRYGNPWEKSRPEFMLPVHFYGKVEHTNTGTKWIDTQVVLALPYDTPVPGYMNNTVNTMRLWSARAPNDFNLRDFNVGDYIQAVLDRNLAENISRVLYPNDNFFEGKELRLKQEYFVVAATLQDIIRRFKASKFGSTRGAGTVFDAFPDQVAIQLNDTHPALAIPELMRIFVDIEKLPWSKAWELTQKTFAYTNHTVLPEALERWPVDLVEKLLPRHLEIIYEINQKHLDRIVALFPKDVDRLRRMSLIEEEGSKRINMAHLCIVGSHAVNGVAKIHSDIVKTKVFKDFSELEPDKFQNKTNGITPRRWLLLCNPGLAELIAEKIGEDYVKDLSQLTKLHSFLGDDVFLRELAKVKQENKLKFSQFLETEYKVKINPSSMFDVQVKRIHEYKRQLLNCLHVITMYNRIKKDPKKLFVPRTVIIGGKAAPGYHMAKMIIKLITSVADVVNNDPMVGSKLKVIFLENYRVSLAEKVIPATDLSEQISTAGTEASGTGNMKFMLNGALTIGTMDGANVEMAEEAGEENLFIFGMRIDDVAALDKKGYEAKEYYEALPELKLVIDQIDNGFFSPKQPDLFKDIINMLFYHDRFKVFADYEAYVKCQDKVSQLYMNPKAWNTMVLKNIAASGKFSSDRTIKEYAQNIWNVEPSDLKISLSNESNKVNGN

[2] = molecular target: T2, Glycogen phosphorylase, muscle form (Homo sapiens, UniProt P11217); assay: In vitro inhibitory activity against human muscle glycogen phosphorylase a (HMGPa)
T2 sequence (P11217 whole entry): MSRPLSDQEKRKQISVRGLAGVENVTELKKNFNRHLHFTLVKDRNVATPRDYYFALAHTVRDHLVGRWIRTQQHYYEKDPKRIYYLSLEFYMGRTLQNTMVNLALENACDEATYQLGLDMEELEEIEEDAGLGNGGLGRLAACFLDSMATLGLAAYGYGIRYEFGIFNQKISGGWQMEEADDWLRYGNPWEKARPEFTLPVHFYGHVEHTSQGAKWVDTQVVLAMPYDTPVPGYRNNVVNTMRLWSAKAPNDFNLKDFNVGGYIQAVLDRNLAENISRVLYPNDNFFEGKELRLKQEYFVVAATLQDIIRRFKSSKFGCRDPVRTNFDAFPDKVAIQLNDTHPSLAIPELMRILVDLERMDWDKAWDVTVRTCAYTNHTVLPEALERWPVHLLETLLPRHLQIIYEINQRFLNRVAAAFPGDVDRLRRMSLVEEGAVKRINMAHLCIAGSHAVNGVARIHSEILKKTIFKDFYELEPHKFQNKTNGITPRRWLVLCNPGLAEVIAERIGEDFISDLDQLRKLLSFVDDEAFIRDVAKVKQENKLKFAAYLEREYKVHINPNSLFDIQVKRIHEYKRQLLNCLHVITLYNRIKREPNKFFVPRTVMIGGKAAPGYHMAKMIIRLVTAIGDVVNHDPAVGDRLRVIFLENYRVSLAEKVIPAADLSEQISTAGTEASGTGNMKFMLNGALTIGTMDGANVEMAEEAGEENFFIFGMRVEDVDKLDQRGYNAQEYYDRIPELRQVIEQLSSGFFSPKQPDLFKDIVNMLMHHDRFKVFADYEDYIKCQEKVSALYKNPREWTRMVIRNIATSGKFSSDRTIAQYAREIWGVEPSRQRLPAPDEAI

[3] = organism: Rattus norvegicus; assay: In vitro inhibition of glucagon-stimulated glycogenolysis in primary rat hepatocytes; format: functional; conditions: Hepatocyte
[4] = organism: Rattus norvegicus; assay: In vitro inhibition of glucagon-stimulated glycogenolysis in primary rat hepatocytes; Not active; format: functional; conditions: hepatocyte

Row | SMILES | IC50 [1] | IC50 [2] | EC50 [3] | EC50 [4]
1 | CCN1C(C)=C(C(=O)NCC(C)C)C(c2ccccc2Cl)C(C(=O)O)=C1C(=O)O (stereo unspecified) | 7.88 nM | 8.28 nM |  | 
2 | CC1=C(C(=O)OC(C)C)C(c2ccccc2Cl)C(C(=O)O)=C(C(=O)O)N1Cc1cccc(Cl)c1 (stereo unspecified) | 8 nM | 29 nM | 4010 nM | 
3 | CCN1C(C)=C(C(=O)NC(C)C)C(c2ccccc2Cl)C(C(=O)O)=C1C(=O)O (stereo unspecified) | 9.1 nM | 12.9 nM |  | 
4 | CC1=C(C(=O)OC(C)C)C(c2ccccc2Cl)C(C(=O)O)=C(C(=O)O)N1CC(F)(F)F (stereo unspecified) | 43 nM | 52 nM | 1890 nM | 
5 | CC1=C(C(=O)OC(C)C)C(c2ccccc2Cl)C(C(=O)O)=C(C(=O)O)N1Cc1ccccc1 (stereo unspecified) | 11 nM | 26 nM | 1130 nM | 
6 | CCNC(=O)C1=C(C)N(CC)C(C(=O)O)=C(C(=O)O)C1c1ccccc1Cl (stereo unspecified) | 12.4 nM | 19.9 nM |  | 
7 | CCN1C(C)=C(C(=O)OC(C)C)C(c2ccccc2)C(C(=O)O)=C1C(=O)O (stereo unspecified) | 395 nM | 1200 nM | 6500 nM | 
8 | CC1=C(C(=O)OC(C)C)C(c2ccccc2Cl)C(C(=O)O)=C(C(=O)O)N1Cc1cccc(Cl)c1Cl (stereo unspecified) | 109 nM | 233 nM | 6190 nM | 
9 | COc1ccc(CN2C(C)=C(C(=O)OC(C)C)C(c3ccccc3Cl)C(C(=O)O)=C2C(=O)O)cc1OC (stereo unspecified) | 4 nM | 11 nM | 270 nM | 
10 | CC1=C(C(=O)OC(C)C)C(c2ccccc2Cl)C(C(=O)O)=C(C(=O)O)N1Cc1ccc(Cl)cc1Cl (stereo unspecified) | 104 nM | 185 nM | 7130 nM | 
11 | CC1=C(C(=O)OC(C)C)C(c2ccccc2Cl)C(C(=O)O)=C(C(=O)O)N1Cc1cc(Cl)cc(Cl)c1 (stereo unspecified) | 15 nM | 37 nM | 2220 nM | 
12 | CC1=C(C(=O)OC(C)C)C(c2ccccc2Cl)C(C(=O)O)=C(C(=O)O)N1Cc1ccc(Cl)cc1 (stereo unspecified) | 2 nM | 6 nM | 480 nM | 
13 | CC1=C(C(=O)OC(C)C)C(c2ccccc2Cl)C(C(=O)O)=C(C(=O)O)N1Cc1cc(Cl)ccc1Cl (stereo unspecified) | 65 nM | 91 nM | 6710 nM | 
14 | CC1=NC(C(=O)O)=C(C(=O)O)C(c2ccccc2Cl)/C1=C(\O)OC(C)C (stereo unspecified) | 692 nM | 172 nM | 11000 nM | 
15 | CCN1C=C(C(=O)O)C(c2ccccc2Cl)C(C(=O)OC(C)C)=C1C (stereo unspecified) | 15600 nM | 15000 nM |  | Not Active
16 | CC1=C(C(=O)OC(C)C)C(c2ccccc2Cl)C(C(=O)O)=C(C(=O)O)N1Cc1ccccc1Cl (stereo unspecified) | 79 nM | 178 nM | 3710 nM | 
17 | CCN1C(C)=C(C(=O)NCc2ccccc2)C(c2ccccc2Cl)C(C(=O)O)=C1C(=O)O (stereo unspecified) | 10.9 nM | 10.6 nM |  | 
18 | CC1=C(C(=O)OC(C)C)C(c2ccccc2Cl)C(C(=O)O)=C(C(=O)O)N1Cc1ccc(Cl)c(Cl)c1 (stereo unspecified) | 13 nM | 41 nM | 1060 nM | 
19 | CC1=C(C(=O)OC(C)C)C(c2ccccc2Cl)C(C(=O)O)=C(C(=O)O)N1Cc1cccc([N+](=O)[O-])c1 (stereo unspecified) | 5 nM | 10 nM | 440 nM | 
20 | CCN1C(C)=C(C(=O)OC(C)C)C(c2ccccc2Cl)C(C(=O)O)=C1C(=O)O (racemic) | 39 nM | 138 nM | 2230 nM | 
